Counter-ions that a name gives are not always drawn.
T1: ABCG2 (Homo sapiens, UniProt Q9UNQ0)
T1 sequence (Q9UNQ0 1-655): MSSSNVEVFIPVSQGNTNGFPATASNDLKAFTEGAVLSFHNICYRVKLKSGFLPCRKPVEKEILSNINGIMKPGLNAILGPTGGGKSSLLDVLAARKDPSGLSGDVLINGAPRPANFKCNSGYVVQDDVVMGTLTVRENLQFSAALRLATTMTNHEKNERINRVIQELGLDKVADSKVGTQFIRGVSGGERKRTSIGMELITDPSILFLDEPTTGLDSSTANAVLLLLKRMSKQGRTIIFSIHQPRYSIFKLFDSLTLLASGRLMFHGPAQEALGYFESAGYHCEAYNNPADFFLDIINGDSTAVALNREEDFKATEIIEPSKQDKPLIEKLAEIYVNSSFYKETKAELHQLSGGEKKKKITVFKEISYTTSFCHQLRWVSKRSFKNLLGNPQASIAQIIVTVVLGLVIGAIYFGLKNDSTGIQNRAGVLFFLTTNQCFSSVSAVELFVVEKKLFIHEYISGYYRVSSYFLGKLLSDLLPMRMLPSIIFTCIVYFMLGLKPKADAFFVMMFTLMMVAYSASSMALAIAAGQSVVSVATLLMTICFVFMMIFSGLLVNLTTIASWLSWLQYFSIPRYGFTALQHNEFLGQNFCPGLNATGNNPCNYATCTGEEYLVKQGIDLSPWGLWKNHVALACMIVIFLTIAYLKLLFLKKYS

T2: mouse Abcg2 (Mus musculus, UniProt Q7TMS5)
T2 construct: expressed in transfected cells; host or cells: HEK293 (transient transfection, myc-mAbcg2/pcDNA3.1(+)); cell membrane vesicles
T2 sequence (Q7TMS5 1-657): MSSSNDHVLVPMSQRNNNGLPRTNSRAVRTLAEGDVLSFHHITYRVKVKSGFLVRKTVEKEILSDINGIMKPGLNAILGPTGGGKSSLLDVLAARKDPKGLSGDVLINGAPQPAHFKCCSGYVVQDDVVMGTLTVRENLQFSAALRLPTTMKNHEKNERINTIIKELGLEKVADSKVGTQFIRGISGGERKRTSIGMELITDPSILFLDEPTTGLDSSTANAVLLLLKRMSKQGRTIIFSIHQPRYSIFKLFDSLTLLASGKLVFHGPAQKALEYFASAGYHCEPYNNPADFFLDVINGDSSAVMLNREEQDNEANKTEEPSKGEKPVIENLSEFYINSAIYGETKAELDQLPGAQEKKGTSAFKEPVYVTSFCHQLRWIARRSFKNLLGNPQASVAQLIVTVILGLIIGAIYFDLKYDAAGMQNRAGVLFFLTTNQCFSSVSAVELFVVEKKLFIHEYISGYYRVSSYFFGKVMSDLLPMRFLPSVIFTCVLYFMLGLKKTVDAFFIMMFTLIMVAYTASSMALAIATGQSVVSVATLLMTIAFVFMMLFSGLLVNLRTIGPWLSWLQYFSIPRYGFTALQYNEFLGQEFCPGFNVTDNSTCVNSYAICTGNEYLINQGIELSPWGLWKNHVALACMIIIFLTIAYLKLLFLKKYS

B1: ABCG2 (Homo sapiens) (protein)
chain: T1 sequence (Q9UNQ0 1-655)
notes: expressed in transfected cells; host or cells: HEK293 (transient transfection, pcDNA3.1(+)); isolated membrane vesicles

Experiments:
ABCG2 [1] = molecular target: T1, ABCG2; assay: inhibition of ABCG2-mediated [3H]estrone-3-sulfate transport in membrane vesicles; details: [3H]ES 500 nM, vesicle transport assay, HEK293 membrane vesicles
Text: Wild-type ABCG2 cDNA was inserted into the Nhe I site and Apa I site of pcDNA3.1(+) vector plasmid (Invitrogen, Carlsbad, Calif.), with a myc-tag sequence attached at the 5′ end. To prepare membrane vesicles, HEK293 cells were transiently transfected with an expression vector for ABCG2 or an empty vector using FuGENE6 (Roche Diagnostics, Indianapolis, Ind.). Forty-eight hours later, cells were harvested and the membrane vesicles were isolated using a standard method. The uptake study of [^3H]estrone-3-sulfate (ES, 500 nM) and [^14C]urate (28 μM) was performed.
Using membrane vesicles prepared from ABCG2-expressing cells, the inhibitory effect of urate on ABCG2-mediated transport of its typical substrate, ES (estrone-3-sulfate) was examined.
The inhibitory effect on the transport of [^3H]estrone-3-sulfate (ES, 500 nM), a typical substrate of ABCG2 was examined using the vesicle transport assay system.

mouse Abcg2 = molecular target: T2, mouse Abcg2; assay: [14C]urate transport in mouse Abcg2-expressing membrane vesicles; format: biochemical; details: uric acid 250 μM to 4 mM, cell membrane vesicles
Text: A mouse Abcg2 expression vector was constructed by amplifying a cDNA of mouse Abcg2 with a myc tag sequence attached to the N-terminus, integrating it into pGEM T-Easy Vector (Promega, Madison, Wis.), and then integrating it into a Not I site of a pcDNA3.1(+) vector via a restriction enzyme treatment.
Also, in order to confirm whether or not the mouse Abcg2 transports urate in the same manner as in human ABCG2, HEK293 cells into which the mouse myc-Abcg2 expression vector was transiently introduced were recovered, and cell membrane vesicles were prepared.
Transport experiments were performed using cell membrane vesicles and using radioisotope-labeled uric acid as a substrate. As a result, it was confirmed that the mouse Abcg2 also transports uric acid in the same manner as in human ABCG2. Also, transport experiments were performed in uric acid concentrations of 250 μM, 500 μM, 1 mM, 1.5 mM, 2 mM, and 4 mM, respectively. […] Whereby, it was shown that mouse Abcg2 is a high-capacity urate transporter which can function even in the presence of a high concentration of uric acid.

ABCG2 [2] = molecular target: T1, ABCG2; details: typical ABCG2 substrates, low capacity; read-out: Km value of transport by ABCG2; cited from earlier work
[3] = substrate: O=c1[nH]c(=O)c2[nH]c(=O)[nH]c2[nH]1; assay: ATP-dependent [14C]urate transport in ABCG2-expressing membrane vesicles; format: biochemical, human; details: other: membrane vesicles from ABCG2-expressing HEK293 cells
Experimental: As shown in FIG. 3 (A), an ATP-dependent urate transport was detected in ABCG2-expressing vesicles but not in control vesicles. This is the first evidence of a direct high-capacity urate transport via ABCG2. Because of a mild inhibitory effect on the ES transport, urate was assumed to be a high-capacity substrate of ABCG2. Indeed, as shown in FIG. 3 (B), ABCG2-mediated urate transport scarcely reached saturation at concentrations of 1 mM or less.
Typical ABCG2 substrates, e.g., sulfate conjugates such as ES, 4-methylumbelliferone sulfate, and E3040 sulfate, are transported by ABCG2 with low capacity (Km value of about 20 μM).

Row | Molecule | inhibitory effect on the transport of [3H]estrone-3-sulfate (ABCG2 [1]) | Km (ABCG2 [2]) [µM] | other results
1 | Cc1cn([C@H]2C[C@H](N=[N+]=[N-])[C@@H](CO)O2)c(=O)[nH]c1=O [AZT, 3′-azido-3′-deoxythymidine] | inhibition | – | –
2 | O=c1[nH]c(=O)c2[nH]c(=O)[nH]c2[nH]1 [urate] | – | – | saturability of urate transport via mouse Abcg2 (mouse Abcg2): no saturability
3 | CNc1nc2c(Cc3cccnc3)c(C)c(OS(=O)(=O)O)c(C)c2s1 [E3040 sulfate] | – | ~20 | –
4 | Cc1cc(=O)oc2cc(OS(=O)(=O)O)ccc12 [4-methylumbelliferone sulfate] | – | ~20 | –
5 | C[C@]12CC[C@@H]3c4ccc(OS(=O)(=O)O)cc4CC[C@H]3[C@@H]1CCC2=O [ES, estrone-3-sulfate] | inhibition | ~20 | –
6 | B1 | – | – | Km [3]: 8240 ± 1440 µM; Vmax [3]: 6.96 ± 0.89 nmol/min/mg (protein)

Reference: patent US8940286B2, “Urate transporter, as well as method and kit for evaluating urate transport-related disease factor and inflammation-related disease factor, and test sample and drug” (The University of Tokyo, priority 2009, dated 2015)
